The text below walks through data of US11708348B2, “Protease inhibitors for treatment of coronavirus infections” (The Scripps Research Institute, priority 2021, dated 2023).

For the first experiment, the system named is SARS-CoV-2 strain USA-WA1/2020. The experiment is described as follows: microbe, parasite or virus in culture. The format is cell-based. To be noted: Severe acute respiratory syndrome coronavirus 2, HeLa-ACE2, 24 h, HeLa-ACE2 cells, SARS-CoV-2 infection, 24 h; bound printed in cell; read-out: EC50, uM (Hela).
As for `C[C@@H]1CN(C(=O)C(=O)NC(C)(C)C(F)(F)F)C[C@H]1C(=O)N[C@@H](C[C@@H]1CCNC1=O)C(=O)COC(F)(F)F` [Compound 293, (3S,4S)-4-methyl-N-((S)-3-oxo-1-((S)-2-oxopyrrolidin-3-yl)-4-(trifluoromethoxy)butan-2-yl)-1-(2-oxo-2-((1,1,1-trifluoro-2-methylpropan-2-yl)amino)acetyl)-pyrrolidine-3-carboxamide], the EC50 was more than 1 µM.

The experiment is the same for the next values; noted with them: Severe acute respiratory syndrome coronavirus 2, HeLa-ACE2, 24 h, HeLa-ACE2 cells, SARS-CoV-2 infection, 24 h; class symbols; read-out: EC50, uM (Hela).
For the compound `O=C(Nc1ccccc1F)C(=O)N1[C@@H]2C[C@@H]2C[C@H]1C(=O)N[C@@H](C[C@@H]1CCNC1=O)C(=O)COC(F)(F)F` [Compound 265, (1R,S 5R)-2-(2-((2-fluorophenyl)amino)-2-oxoacetyl)-N-((S)-3-oxo-1-((S)-2-oxopyrrolidin-3-yl)-4-(trifluoromethoxy)butan-2-yl)-2-azabicyclo-[3.1.0]-hexane-3-carboxamide], the EC50 was 0.05 to 0.2 µM. Still for that read-out and setting: with `O=C(NCC(F)(F)F)C(=O)NC(CC1CCOCC1)C(=O)N[C@@H](C[C@@H]1CCNC1=O)C(=O)COC(F)(F)F` (stereo partly drawn) [Compound 267, N1-(1-oxo-1-(((S)-3-oxo-1-((S)-2-oxopyrrolidin-3-yl)-4-(trifluoromethoxy)butan-2-yl)amino)-3-(tetrahydro-2H-pyran-4-yl)propan-2-yl)-N2-(2,2,2-trifluoroethyl)-oxalamide] the figure was 0.5 to 1 µM; with `CC1(NC(=O)C(=O)N2C[C@@H]3CCC[C@@H]3[C@H]2C(=O)N[C@@H](C[C@@H]2CCNC2=O)C(=O)COC(F)(F)F)CC1` [Compound 270, (1S,3aR,6aS)-2-(2-((l-methylcyclopropyl)-amino)-2-oxoacetyl)-N-((S)-3-oxo-1-((S)-2-oxopyrrolidin-3-yl)-4-(trifluoromethoxy)butan-2-yl)octahydrocyclo-penta[c]pyrrole-1-carboxamide], 0.05 to 0.2 µM; with `O=C(Nc1ccccc1F)C(=O)NC(CC1CCOCC1)C(=O)N[C@@H](C[C@@H]1CCNC1=O)C(=O)COC(F)(F)F` (stereo partly drawn) [Compound 271, N1-(2-fluorophenyl)-N2-(1-oxo-1-(((S)-3-oxo-1-((S)-2-oxopyrrolidin-3-yl)-4-(trifluoromethoxy)butan-2-yl)amino)-3-(tetrahydro-2H-pyran-4-yl)propan-2-yl)oxalamide], less than 0.05 µM. For the compound `CC(C)C[C@H](NC(=O)c1csc(C(F)(F)F)n1)C(=O)N[C@@H](CC1CCNC1=O)C(=O)COC(F)(F)F` (stereo partly drawn) [Compound 277, N-((2S)-4-methyl-1-oxo-1-(((2S)-3-oxo-1-(2-oxopyrrolidin-3-yl)-4-(trifluoromethoxy)butan-2-yl)amino)pentan-2-yl)-2-(trifluoromethyl)-thiazole-4-carboxamide], the EC50 was less than 0.05 µM. Take `CC1(C)[C@@H]2[C@@H](C(=O)N[C@@H](C[C@@H]3CCNC3=O)C(=O)COC(F)(F)F)N(C(=O)c3cc(C(F)(F)F)on3)C[C@@H]21` [Compound 283, (1R,2S,5S)-6,6-dimethyl-N-((S)-3-oxo-1-((S)-2-oxopyrrolidin-3-yl)-4-(trifluoromethoxy)butan-2-yl)-3-(5-(trifluoromethyl)-isoxazole-3-carbonyl)-3-azabicyclo[3.1.0]-hexane-2-carboxamide]: the EC50 was less than 0.05 µM. For the compound `CC(C)(F)c1cc(C(=O)N2C[C@H]3[C@@H]([C@H]2C(=O)N[C@@H](C[C@@H]2CCNC2=O)C(=O)COc2c(F)c(F)cc(F)c2F)C3(C)C)no1` [Compound 284, (1R,2S,5S)-3-(5-(2-fluoropropan-2-yl)isoxazole-3-carbonyl)-6,6-dimethyl-N-((S)-3-oxo-1-((S)-2-oxopyrrolidin-3-yl)-4-(2,3,5,6-tetrafluorophenoxy)butan-2-yl)-3-azabicyclo-[3.1.0]hexane-2-carboxamide], the EC50 is 0.2 to 0.5 µM. In the case of `CC(C)(C)[C@H](NC(=O)[C@H]1CCCO1)C(=O)N1C[C@H]2[C@@H]([C@H]1C(=O)N[C@@H](C[C@@H]1CCNC1=O)C(=O)COC(F)(F)F)C2(C)C` [Compound 290, (1R,2S,5S)-3-((S)-3,3-dimethyl-2-((R)-tetrahydrofuran-2-carboxamido)-butanoyl)-6,6-dimethyl-N-((S)-3-oxo-1-((S)-2-oxopyrrolidin-3-yl)-4-(trifluoromethoxy)butan-2-yl)-3-azabicyclo-[3.1.0]hexane-2-carboxamide], the EC50 lay in the range of 0.2 to 0.5 µM. As for `CC1(C)[C@@H]2[C@@H](C(=O)N[C@@H](C[C@@H]3CCNC3=O)C(=O)COC(F)(F)F)N(C(=O)[C@H]3CCCO3)C[C@@H]21` [Compound 291, (1R,2S,5S)-6,6-dimethyl-N-((S)-3-oxo-1-((S)-2-oxopyrrolidin-3-yl)-4-(trifluoromethoxy)butan-2-yl)-3-((R)-tetrahydrofuran-2-carbonyl)-3-azabicyclo-[3.1.0]hexane-2-carboxamide], the EC50 was 0.05 to 0.2 µM. Consider `CC[C@H](NC(=O)C1CC2(CC2)CO1)C(=O)N[C@@H](C[C@@H]1CCNC1=O)C(=O)COC(F)(F)F` (stereo partly drawn) [Compound 294, N-((S)-1-oxo-1-(((S)-3-oxo-1-((S)-2-oxopyrrolidin-3-yl)-4-(trifluoromethoxy)butan-2-yl)amino)butan-2-yl)-5-oxaspiro[2.4]heptane-6-carboxamide], for which the EC50 is less than 0.05 µM.

As for `O=C1NCC[C@H]1C[C@H](NC(=O)[C@@H]1[C@H]2CCC[C@H]2CN1C(=O)C1CC2(CC2)CO1)C(=O)COC(F)(F)F` (stereo partly drawn) [Compound 295, (1S,3aR,6aS)-N-((S)-3-oxo-1-((S)-2-oxopyrrolidin-3-yl)-4-(trifluoromethoxy)butan-2-yl)-2-(5-oxaspiro[2.4]heptane-6-carbonyl)octahydro-cyclopenta[c]pyrrole-1-carboxamide], the concentration giving a half-maximal response (EC50) lay in the range of 0.05 to 0.2 µM.

On to `O=C(N[C@@H](C[C@@H]1CCNC1=O)C(=O)COC(F)(F)F)C(CC1CCOCC1)NC(=O)[C@H]1CCCO1` (stereo partly drawn) [Compound 298, (2R)-N-(1-oxo-1-(((S)-3-oxo-1-((S)-2-oxopyrrolidin-3-yl)-4-(trifluoromethoxy)butan-2-yl)amino)-3-(tetrahydro-2H-pyran-4-yl)propan-2-yl)tetrahydrofuran-2-carboxamide], for which the 50% effective concentration (EC50) fell in the range of 0.5 to 1 µM. As for `O=C(N[C@@H](C[C@@H]1CCNC1=O)C(=O)COC(F)(F)F)C1[C@H]2CCC[C@H]2CN1C(=O)[C@H]1CCCO1` (stereo partly drawn) [Compound 299, (1S,3aR,6aS)-N-((S)-3-oxo-1-((S)-2-oxopyrrolidin-3-yl)-4-(trifluoromethoxy)butan-2-yl)-2-((R)-tetrahydrofuran-2-carbonyl)octahydro-cyclopenta[c]pyrrole-l-carboxamide], the EC50 fell in the range of 0.05 to 0.2 µM.

The experiment is the same for the next values; noted with them: Severe acute respiratory syndrome coronavirus 2, HeLa-ACE2, 24 h; read-out: EC50, uM (Hela).
Turning to `CC(C)(C)[C@H](NC(=O)C(F)(F)F)C(=O)N1C[C@@H]2CCC[C@@H]2[C@H]1C(=O)N[C@@H](C[C@@H]1CCNC1=O)C(=O)COC(F)(F)F` [Compound 266, (1S,3aR,6aS)-2-((S)-3,3-dimethyl-2-(2,2,2-trifluoroacetamido)-butanoyl)-N-((S)-3-oxo-1-((S)-2-oxopyrrolidin-3-yl)-4-(trifluoromethoxy)butan-2-yl)octahydrocyclo-penta[c]pyrrole-1-carboxamide], the EC50 was less than 0.05 µM.

Staying with this experiment, now noted: read-out: EC50, uM (Hela).
In the case of `O=C1NCC[C@H]1C[C@H](NC(=O)[C@@H]1[C@H]2CCC[C@H]2CN1C(=O)C1(NC(=O)C(F)(F)F)CCC1)C(=O)COC(F)(F)F` [Compound 274, (1S,3aR,6aS)-N-((S)-3-oxo-1-((S)-2-oxopyrrolidin-3-yl)-4-(trifluoromethoxy)butan-2-yl)-2-(l-(2,2,2-trifluoroacetamido)-cyclobutane-1-carbonyl)octahydro-cyclopenta[c]pyrrole-l-carboxamide], the EC50 is 0.2 to 0.5 µM.

In general, EC50 refers to the concentration at which the effect is half-maximal.
